# Results published in PubChem BioAssay (NCI).
#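 Following 48 hours of exposure in 96-well plates, responses at five concentrations were used to interpolate endpoints linearly. GI50: concentration for 50% inhibition of growth. TGI denotes the concentration required for complete inhibition of growth.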
# Legend:
# Test in all cases: growth of human tumour cells (NCI), 48 h
# A549 NSCLC = system: A549 NSCLC
# COLO 205 colon = system: COLO 205 colon
# HCT-15 colon = system: HCT-15 colon
# K-562 leukemia = system: K-562 leukemia
# KM12 colon = system: KM12 colon
# NCI-H23 lung = system: NCI-H23 lung
# NCI/ADR-RES ovarian = system: NCI/ADR-RES ovarian
# SF-268 CNS = system: SF-268 CNS
# SK-OV-3 ovarian = system: SK-OV-3 ovarian
# T-47D breast = system: T-47D breast
Structure (SMILES),TGI (A549 NSCLC) [µM],TGI (COLO 205 colon) [µM],TGI (HCT-15 colon) [µM],TGI (K-562 leukemia) [µM],TGI (KM12 colon) [µM],TGI (NCI-H23 lung) [µM],TGI (NCI/ADR-RES ovarian) [µM],TGI (SF-268 CNS) [µM],TGI (SK-OV-3 ovarian) [µM],TGI (T-47D breast) [µM],GI50 (COLO 205 colon) [µM],GI50 (HCT-15 colon) [µM],GI50 (K-562 leukemia) [µM],GI50 (NCI/ADR-RES ovarian) [µM],GI50 (SF-268 CNS) [µM],GI50 (SK-OV-3 ovarian) [µM],GI50 (A549 NSCLC) [µM],GI50 (NCI-H23 lung) [µM],GI50 (T-47D breast) [µM]
COc1ccc2nc(-c3ccc(N)cc3)sc2c1,> 100,> 100,> 100,> 100,> 100,> 100,> 100,> 100,> 100,–,–,–,–,–,–,–,–,–,–
NC1CC(=O)c2c(I)sc(I)c21 (stereo not drawn),> 79.5,> 63,45.8,> 100,32.9,35,> 61.7,46.1,> 100,> 73,–,–,–,–,–,–,–,–,–
O=C1c2ccccc2CC12Cc1ccc3c(c1C2=O)CCCC3 (stereo not drawn),> 100,> 100,> 100,> 100,> 100,–,> 100,> 100,> 100,9.59,–,–,–,–,–,–,–,–,–
c1cc(CSP234N5CCN2CCN3CCN4CC5)cc(CSP234N5CCN2CCN3CCN4CC5)c1,> 100,49.9,70.8,> 100,47.1,> 100,> 100,> 100,–,> 100,–,–,–,–,–,–,–,–,–
CCCOC(=O)CCC(NC(=O)c1ccc(Nc2nc3ccccc3nc2-c2cccs2)cc1)C(=O)OCCC (stereo not drawn),> 100,> 100,> 100,> 100,> 100,> 100,–,> 100,> 100,–,–,–,–,–,–,–,–,–,–
CCCNC(=O)c1cc(OC)c(OC)cc1NC(=O)C12CC3CC(CC(C3)C1)C2,35.3,56.6,32.7,> 100,32,31.6,48.3,35,–,40.4,–,–,–,–,–,–,–,–,–
O=C(NCC(O)COc1ccccc1)c1ccccc1O (stereo not drawn),> 100,> 100,> 100,> 100,> 100,> 100,> 100,–,> 100,> 100,–,–,–,–,–,–,–,–,–
O=C(O)c1ccccc1Sc1ccc(C=C2NC(=S)N(c3ccccc3)C2=O)s1,–,> 100,> 100,> 100,> 100,> 100,> 100,> 100,–,> 100,–,–,–,–,–,–,–,–,–
CCOC(=O)c1c(N2CCN(C)CC2)[nH]c(=O)c(C(c2c(Cl)cccc2Cl)c2c(O)c(C(=O)OCC)c(N3CCN(C)CC3)[nH]c2=O)c1O,71.4,> 100,97.7,86.8,49.7,> 100,> 100,56.5,–,45.8,–,–,–,–,–,–,–,–,–
CCOc1c2c(cc3c1C(=O)c1c(OC)cccc1C3=O)C=C(OC)CC2,> 25,> 25,> 25,> 25,> 25,> 25,> 25,> 25,> 25,–,–,–,–,–,–,–,–,–,–
CCOC(=O)CN(CC)C(=O)NC12CC3CC(CC(C3)C1)C2,> 750,270,646,683,> 750,560,> 680,> 750,513,–,–,–,–,–,–,–,–,–,–
CN(C)CCCn1c(-c2ccc(Br)cc2)csc1=Nc1ccccc1,48.9,–,71,47.8,26.4,27.8,35.7,33.6,40.4,–,–,–,–,–,–,–,–,–,–
C=CC[PH+](c1ccccc1)c1ccccc1.C=CC[PH+](c1ccccc1)c1ccccc1.[Pt+2].[S-]c1nc2ccccc2[nH]1.[S-]c1nc2ccccc2[nH]1,–,6.56,> 100,> 100,–,–,> 100,> 100,27.4,–,2.02,6.34,0.62,47.1,2.77,3.16,–,–,–
Cc1cc2nc3c(N)nn(CCCN(C)C)c3nc2cc1C,> 100,> 100,> 100,–,> 100,> 100,> 100,> 100,> 100,> 100,–,–,–,–,–,–,–,–,–
COc1ccc(/C=C(\C#N)c2ccccn2)cc1OC,> 100,> 100,> 100,> 100,> 100,> 100,55.7,> 100,> 100,–,–,–,–,–,–,–,–,–,–
c1c2c(cc3c1OCO3)-c1ncc3cc4c(cc3c1C2)OCO4,> 77,–,24.8,> 64.9,–,> 24.7,52.4,7.79,26.8,> 100,< 0.0354,< 0.01,0.0101,0.0508,0.112,< 0.01,0.702,< 0.0229,> 100
Cc1c(CCCl)c(Cl)n2c(nc3ccccc32)c1C#N,> 100,2.47,1.98,3.34,2.54,2.37,–,11.5,> 56.4,–,–,–,–,–,–,–,–,–,–
O=C1C=C2SC3C[C@@]24CC1(O)[N+]1=c2c4c(c(O)c4c2=C(C=N4)CC1)N3,4.11,0.332,3.92,2.72,2.91,2.71,2.78,2.19,3.78,–,–,–,–,–,–,–,–,–,–
COC(=O)[C@@H]1CN(C(=O)Cc2ccccc2)C(=O)N1,> 100,> 100,–,> 100,> 100,> 100,> 100,> 100,–,> 100,–,–,–,–,–,–,–,–,–
NC1=Nc2ncccc2C(=O)NN1,> 10,–,> 10,> 10,> 10,> 10,–,> 10,> 10,> 10,–,–,–,–,–,–,–,–,–
COc1cccc(C2c3cc4c(cc3OC(NNS(=O)(=O)c3ccc(C)cc3)C2C)OCO4)c1O (stereo not drawn),> 100,34.2,> 100,39.4,79.2,> 100,–,> 100,> 100,> 100,–,–,–,–,–,–,–,–,–
O=S(c1ccc(O)cc1)c1ccc(O)cc1,> 100,> 100,> 100,> 100,> 100,> 100,–,> 100,> 100,–,–,–,–,–,–,–,–,–,–
